# Experimental data from patent publication US20210046139A1, “VEGETATION WATERS AND USES THEREOF” (FATTORIA LA VIALLA DI GIANNI, ANTONIO E BANDINO LO FRANCO - …, priority 2018, published 2021).
# Marks after values point to notes of the source that are not given here.
# Tests used:
# [1] = Body weight, daily food and water intake in STZ diabetic and control rats; type: in vivo, Sprague-Dawley rats; settings: 5 weeks; for BODY WEIGHT: 50 mg/kg/day (HT equivalent) in drinking water; for BODY WEIGHT / FOOD INTAKE: mean ± S.E.; for WATER INTAKE / FOOD INTAKE: 50 mg/kg/day
# Source text: (§1) Use was made of 48 male Sprague-Dawley rats (Harlan, Italy) with a weight comprised from 180-200 g. A well-established model of streptozotocin (STZ)-induced diabetes in rats was used. Streptozotocin is a glucosamine derivative of nitrosurea which selectively destroys the β cells of the pancreatic islets and causes the development of diabetes with hyperglycemia and glycosuria. The model shares a series of characteristics with human diabetic complications at both a functional level and a biochemical level, such as, for example, a reduced nervous conduction, loss of small-diameter sensory nerve fibers in the skin, reduction in Na+ and K+-ATPase activity and early alterations of the thermal and mechanical nociceptive thresholds. In this study, diabetes was induced in 24 rats with a single intraperitoneal injection of 60 mg/kg of STZ dissolved in a sodium citrate buffer (pH 4.5). 24 rats injected only with the vehicle were used as non-diabetic controls. Hyperglycemia was confirmed by measuring glycosuria 72 hours after the injection of STZ using Keto-Diabur strips (KD-5000; Roche Diagnostics Spa, Italy). Only the animals with glycosuria >5% were classified as diabetic and included in the study. […] The animals were then randomized to receive the concentrate of the invention at an HT equivalent dose of 50 mg/kg/day or 50 mg/kg/day of pure HT in drinking water, according to the following treatment groups: The daily dose of compounds was administered starting from the 7th week after the injection of STZ or the vehicle. The treatment lasted 5 weeks and urine samples were taken. The animals were then sacrificed and the plasma, kidneys and sciatic nerves were removed. The sacrifice took place within 2 hours after the last administration of the concentrate, HT or the vehicle. During the trial, the rats were weighed weekly to monitor their weight gain/loss. Hyperglycemia was confirmed in every rat by measuring the glucose level in the blood taken from the vein of the tail with a suitable apparatus (Glucomen, Menarini, Italy), 15 days after the injection of STZ. A plasma glucose level above 300 mg/dL was defined as the hyperglycemia threshold for defining the animals as diabetics.
# STZ diabetic rats = assay: Plasma glucose and glycated hemoglobin (HbA1c); type: in vivo, Sprague-Dawley rats; settings: for HbA1c / PLASMA GLUCOSE: 50 mg/kg/day, 5 weeks, mean ± S.E.
# Source text: as §1, with “A” for “Use was made of 48 male Sprague-Dawley rats (Harlan, Italy) with a weight comprised from 180-200 g. A”, “diabetics. At the end of the 5-week treatment period, urine and plasma were collected to measure the level of triglycerides (TG), total cholesterol (TC), high-density lipoprotein (HDL) and other parameters using commercially available diagnostic kits.” for “diabetics.”
# [2] = non-diabetic control rats (CTRL)
structure (smiles),measurement,setting,value
"OCCc1ccc(O)c(O)c1 [HT, hydroxytyrosol]",BODY WEIGHT,[1]; STZ diabetic rats,216.6 ± 13.0 g
same,WATER INTAKE,[1]; STZ diabetic rats,170.1* ml/24 h
same,FOOD INTAKE,[1]; STZ diabetic rats,33.3 ± 3.7 g/24 h
same,BODY WEIGHT,[1]; [2],450.4 ± 16.4 g
same,WATER INTAKE,[1]; [2],69.5 ml/24 h
same,FOOD INTAKE,[1]; [2],20.6 ± 0.9 g/24 h
same,reduction in HbA1c (glycated hemoglobin),STZ diabetic rats; STZ diabetic rats vs. untreated diabetic rats,20%
same,HbA1c,STZ diabetic rats; STZ diabetic rats,52.3 ± 5.3 mM/mol
same,PLASMA GLUCOSE,STZ diabetic rats; STZ diabetic rats,729.6 ± 36.5 mg/dL
same,HbA1c,STZ diabetic rats; [2],16.7 ± 0.2 mM/mol
same,PLASMA GLUCOSE,STZ diabetic rats; [2],186.1 ± 3.2 mg/dL
